The nature of data set [1]: Effect of fluvoxamine co-administration on tasimelteon pharmacokinetics. The following applies: for AUC: both sexes, human, in vivo. The data set is classed as in vivo, human. As for the experimental part:
Twenty-four healthy male or female subjects between the ages of 18 and 55 years of age (inclusive) who were non-smokers with a body mass index (BMI) of 18 and 35 kg/m2 participated in this open-label, single-sequence study conducted at one site. On day 1, subjects were administered 5.667 mg of tasimelteon.

Data set [2] is described as follows: Effect of smoking on concentration of tasimelteon and metabolites. The data set is classed as in vivo, human. The source says: Smokers were defined as those smoking 10 or more cigarettes per day. Non-smokers were defined as those smoking no cigarettes per day.
A further data set deals with Non-24 patients. The experiment in a line: Entrainment by baseline peak aMT6s and beta blocker status (clinical studies). The data set is classed as in vivo, human. As for the experimental part:
Results of clinicalstudy also show a strong correlation between endogenous melatonin and efficacy of tasimelteon in entraining patients to a 24 hour circadian rhythm. The following table (Table 3A) compares the peak aMT6s levels in the 24 entrained and 23 non-entrained patients.
Data from these studies currently available also indicate that beta blocker therapy is […] related to efficacy of tasimelteon, i.e., patients receiving beta blocker therapy were less likely to become entrained than patients who were not.

Data set [3] can be described thus: Solubility and pH of saturated solution. The data set is classed as physicochemical.
Data set [4] can be described thus: tmax after administration. The data set is classed as in vivo, human. Particulars: tasimelteon.
The test system of another data set is patients with Non-24. The experiment in a line: SET Study: Phase III randomized, double-masked, placebo-controlled study in Non-24. The data set is classed as in vivo, human. As for the experimental part:
Specifically, patients were orally administered 20 mg tasimelteon per day for at least 12 weeks prior to re-estimating tau. Patients were selected for randomization or open label based on baseline tau estimates. Drug was administered at about 1 hour prior to target sleep time, as determined by patients based on a 9 hour nighttime sleep period.
The SET study was an 84 patient randomized, double-masked, placebo-controlled study in patients with Non-24. The primary endpoints for this study were Entrainment of the melatonin (aMT6s) rhythm to the 24-hour clock and Clinical Response as measured by Entrainment plus a score of greater than or equal to 3 on the following N24CRS:
The SET study also assessed a number of secondary endpoints including Entrainment of cortisol rhythm and a broad range of clinical sleep and wake parameters. These parameters included improvement in the total nighttime sleep in the worst 25% of nights (LQ-nTST), decrease in the total daytime sleep duration in the worst 25% of days (UQ-dTSD) and midpoint of sleep timing (MoST) which is derived from a combination of the sleep reported for both nighttime and daytime. CGI-C is a seven-point rating scale of global functioning with lower scores indicating larger improvements.

Data set [5] relates to blind individuals with Non-24. The experiment in a line: RESET Study: randomized withdrawal study, maintenance of effect in Non-24. The data set is classed as in vivo, human. The protocol:
Patients were treated with tasimelteon for at least twelve weeks during an open-label run-in phase during the SET Study. Patients who responded to tasimelteon treatment during the run-in phase were then randomized to receive either placebo or tasimelteon (20 mg/day) for 2 months.
The primary endpoint of the RESET Study was the maintenance of effect as measured by entrainment of the melatonin (aMT6s) rhythm.
The RESET study also assessed a number of secondary endpoints including maintenance of entrainment of the cortisol rhythm and a range of sleep and wake parameters including LQ-nTST (total nighttime sleep in the worst 25% of nights), UQ-dTSD (total daytime sleep duration in the worst 25% of days) and MoST (midpoint of sleep timing from both nighttime and daytime sleep).

Another data set deals with T1, Mel1b (MT2R) (Homo sapiens, UniProt P49286).
T1 sequence (P49286 1-362): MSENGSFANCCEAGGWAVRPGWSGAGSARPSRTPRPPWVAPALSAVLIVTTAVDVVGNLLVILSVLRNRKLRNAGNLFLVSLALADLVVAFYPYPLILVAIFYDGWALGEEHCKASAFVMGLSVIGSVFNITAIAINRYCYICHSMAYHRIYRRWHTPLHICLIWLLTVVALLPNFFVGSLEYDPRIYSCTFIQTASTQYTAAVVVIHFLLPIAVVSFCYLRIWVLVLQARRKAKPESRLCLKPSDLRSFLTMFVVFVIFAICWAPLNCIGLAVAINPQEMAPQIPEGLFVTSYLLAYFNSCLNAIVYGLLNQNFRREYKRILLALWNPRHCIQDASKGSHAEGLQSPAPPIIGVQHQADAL
The experiment in a line: Affinity (Ki) for melatonin receptor MT2R. The data set is classed as binding. The following applies: MT2R vs MT1R.

[6] abbreviates: Day 8 (with fluvoxamine) vs Day 1.
The mark [7] stands for this setting: Day 1: 5.667 mg tasimelteon alone.
Where [8] appears, read: fluvoxamine + tasimelteon vs tasimelteon alone.
Setting [9] is: Day 8: 5.667 mg tasimelteon + 50 mg fluvoxamine.

SMILES strings stand for the structures. Read-outs that look alike come from different tables or passages of the source.

`CCC(=O)NC[C@@H]1C[C@H]1c1cccc(O)c1CCO` [M11]: in data set [1] (setting [6]), the “Geometric Mean Ratio, AUC” value came out at 126.03%; the “Geometric Mean Ratio, Cmax” value stood at 68.71%; the “Geometric Mean Ratio, t1/2” value is listed as 248.35%. Besides, the AUC in data set [1] (setting [7]) stood at 44.5 ± 17.2 ng·h/mL. In data set [2] (Smokers vs Non-Smokers), the “Geometric Mean Ratio, AUC (inf)” value was found to be 81.84%; the “Geometric Mean Ratio, Cmax” value is 84.50%; the “Geometric Mean Ratio, t1/2” value came to 94.13%.
As to `CCC(=O)NC[C@@H]1C[C@H]1c1cccc(O)c1CC(=O)O` [M9], in data set [1] (setting [6]), the “Geometric Mean Ratio, AUC” value amounted to 122.56%; the “Geometric Mean Ratio, Cmax” value is given as 64.94%; the “Geometric Mean Ratio, t1/2” value is 328.02%. For the same compound, the AUC in data set [1] (setting [7]) is 104 ± 30 ng·h/mL. Besides, in data set [2] (Smokers vs Non-Smokers), the “Geometric Mean Ratio, AUC (inf)” value was 74.36%; the “Geometric Mean Ratio, Cmax” value stood at 77.18%; the “Geometric Mean Ratio, t1/2” value is recorded as 85.40%.
`CCC(=O)NC[C@@H]1C[C@H]1c1cccc2c1CCO2` (relative stereo) [Tasimelteon, trans-N-[[2-(2,3-dihydrobenzofuran-4-yl)cycloprop-1yl]methyl]propanamide]: in the data set on Non-24 patients, the “Entrained, number of patients” value was 13 and the “Non-entrained, number of patients” value came to 21. In the data set with Non-24 patients (Peak aMT6s <1500 ng/hr), the “Entrained, % of patients” value came to 41%; the “Entrained, number of patients” value is listed as 12; the “Non-entrained, % of patients” value is given as 59%; the “Non-entrained, number of patients” value amounted to 17. In the data set on Non-24 patients (Peak aMT6s <12000 ng/hr), the “Entrained, % of patients” value came out at 38% and the “Non-entrained, % of patients” value stood at 62%. Moreover, in the data set with Non-24 patients (Peak aMT6s >1500 ng/hr), the “Entrained, % of patients” value is given as 67%; the “Entrained, number of patients” value was found to be 12; the “Non-entrained, % of patients” value is recorded as 33%; the “Non-entrained, number of patients” value amounted to 6. For the same compound, in the data set with Non-24 patients (Peak aMT6s >2000 ng/hr), the “Entrained, % of patients” value is reported as 85%; the “Entrained, number of patients” value was 11; the “Non-entrained, % of patients” value turned out to be 15%; the “Non-entrained, number of patients” value is reported as 2. Also, in the data set on Non-24 patients (Peak aMT6s All), the “Entrained, % of patients” value was 51%; the “Entrained, number of patients” value was 24; the “Non-entrained, % of patients” value came to 49%; the “Non-entrained, number of patients” value is on record as 23. In the data set with Non-24 patients (Taking Beta Blocker: No), the “Entrained, number of patients” value came out at 24 and the “Non-entrained, number of patients” value stood at 19. Moreover, in the data set on Non-24 patients (Taking Beta Blocker: Yes), the “Entrained, number of patients” value is reported as 0 and the “Non-entrained, number of patients” value amounted to 4. Further, in data set [3], the “native pH of a saturated solution in water” value came to 8.5. The tmax entry in data set [4] is “approximately one-half”. In the data set on patients with Non-24 (20 mg/day oral), the “Clinical Response 2 (Entrainment + N24CRS >=2)” value worked out at 28.9% and the “Entrainment (aMT6s)” value turned out to be 20.0%. For the same compound, the “LQ-nTST (LS mean minutes)” value in the data set with patients with Non-24 (LS mean) came out at 57.0 min. In addition, in the data set on patients with Non-24 (LS mean, smaller numbers indicate improvement), the “CGI-C (LS mean minutes)” value amounted to 2.6 min. For the same compound, in the data set on patients with Non-24 (only subjects with significant sleep and nap problems at baseline), the “LQ-nTST and UQ-dTSD >=90 mm” value worked out at 23.8%. In data set [1] (setting [6]), the “Geometric Mean Ratio, AUC” value was 653.36%; the “Geometric Mean Ratio, CL/F” value was 15.31%; the “Geometric Mean Ratio, Cmax” value is recorded as 232.74%; the “Geometric Mean Ratio, t1/2” value is recorded as 211.82%. For the same compound, in data set [1] (setting [7]), the AUC amounted to 102 ± 61.5 ng·h/mL. In data set [1] (setting [8]), the “AUC)-inf increase upon co-administration of fluvoxamine” value is reported as “approximately 7 fold” and the “Cmax increase upon co-administration of fluvoxamine” value is “approximately 2 fold”. In addition, the “time to relapse analysis” value in data set [5] (45 min decrement of weekly average nighttime sleep, P=0.0907) is “placebo treated patients relapsed in higher numbers and at an earlier time than tasimelteon treated patients”. In addition, in data set [5] (RESET, 20 mg/day), the “Maintenance of entrainment (aMT6s)” value stood at 90.0% and the “maintenance of entrainment (cortisol)” value is on record as 80.0%. In data set [5] (RESET, tasimelteon vs placebo), the “MoST (LS mean minutes), Difference” value turned out to be 36.0 min and the “maintenance of entrainment (cortisol), Difference” value came out at 60.0%. Further, the CL/F in data set [2] (Non-Smokers) is on record as 1,482 ± 1,008 mL/mm. Moreover, the CL/F in data set [2] (Smokers) is recorded as 2,290 ± 1,232 mL/mm. In addition, in data set [2] (Smokers vs Non-Smokers), the “Geometric Mean Ratio, AUC (inf)” value came out at 60.14%; the “Geometric Mean Ratio, CL/F” value is reported as 166.27%; the “Geometric Mean Ratio, Cmax” value came to 63.98%; the “Geometric Mean Ratio, Vz/F” value was 144.39%. For the same compound, the “Geometric Mean Ratio, t1/2” value in data set [2] (Smokers vs Non-Smokers) is on record as 86.84%. Also, the “greater affinity for MT2R relative to MT1R” value on Mel1b (MT2R) was 2-4 times.
For the compound `CCC(=O)NCC1CC1c1cccc2c1C(O)CO2` (centres unmarked) [M14], the “AUC (ml)” value in data set [1] (setting [7]) is 4.54 ± 2.39 ng·h/mL. For the same compound, in data set [1] (setting [6]), the “Geometric Mean Ratio, AUC” value is given as 944.73%; the “Geometric Mean Ratio, Cmax” value amounted to 264.58%; the “Geometric Mean Ratio, t1/2” value came out at 243.34%. Besides, the “AUC (ml)” value in data set [1] (setting [9]) was 42.6 ± 27.3 ng·h/mL. Also, in data set [2] (Smokers vs Non-Smokers), the “Geometric Mean Ratio, AUC (inf)” value is 42.98%; the “Geometric Mean Ratio, Cmax” value was determined as 60.17%; the “Geometric Mean Ratio, t1/2” value worked out at 65.09%.
Regarding `CCC(=O)NCC1CC1c1cccc2c1CC(O)O2` (centres unmarked) [M13], the “AUC (ml)” value in data set [1] (setting [7]) was 106 ± 32.6 ng·h/mL. For the same compound, in data set [1] (setting [6]), the “Geometric Mean Ratio, AUC” value was found to be 125.05%; the “Geometric Mean Ratio, Cmax” value stood at 69.31%; the “Geometric Mean Ratio, t1/2” value was determined as 349.81%. Also, in data set [1] (setting [9]), the “AUC (ml)” value was 133 ± 32.9 ng·h/mL. In data set [2] (Smokers vs Non-Smokers), the “Geometric Mean Ratio, AUC (inf)” value was 97.31%; the “Geometric Mean Ratio, Cmax” value amounted to 99.49%; the “Geometric Mean Ratio, t1/2” value came out at 77.51%.
Take `CCC(=O)NCC1CC1c1cccc2c1C(O)CO2` (centres unmarked) [M12]: in data set [1] (setting [7]), the “AUC (ml)” value worked out at 189 ± 90.8 ng·h/mL. In data set [1] (setting [6]), the “Geometric Mean Ratio, AUC” value is listed as 274.81%; the “Geometric Mean Ratio, Cmax” value was 92.74%; the “Geometric Mean Ratio, t1/2” value was determined as 241.02%. In addition, the “AUC (ml)” value in data set [1] (setting [9]) is 435 ± 109.3 ng·h/mL. Further, in data set [2] (Smokers vs Non-Smokers), the “Geometric Mean Ratio, AUC (inf)” value is on record as 84.87%; the “Geometric Mean Ratio, Cmax” value is 115.53%; the “Geometric Mean Ratio, t1/2” value is 73.31%.

Source of the values: patent US11633377B2, “Treatment of circadian rhythm disorders” (Vanda Pharmaceuticals Inc., priority 2012, dated 2023).
